Results reported in patent US10912743B2, “Compositions for treating inflammation and methods of treating the same” (Novan, Inc., priority 2016, dated 2021).
Marks after values point to notes of the source that are not given here.

Legend:
[1] = test system: oxazolone-induced ear swelling; experiment: Oxazolone-induced ear swelling assay in BALB/c mice; assay type: in vivo
Experimental: Groups of 5 BALB/c male mice weighing 22±2 g were used. The animals were sensitized by application of oxazolone (100 μL, 1.5% in acetone) to their preshaved abdominal surface. Seven days later, test substances (20 mg/ear) and vehicle (20 μL/ear) were applied topically to the anterior and posterior surfaces of the right ear 30 min before and 15 min after oxazolone (1%, 20 μL/ear) challenge. Ear swelling was measured with a Dyer model micrometer gauge at 24 hours after oxazolone challenge as an index of inflammation. Ear edema was calculated by subtracting the thickness of the left ear (normal control) from the right ear (treated ear). Percent inhibition was calculated according to the formula: (Ic −It)/Ic×100, where Ic and It refers to increase of ear thickness (mm) in control and treated mice, respectively. One-way ANOVA and Dunnett's test were used to determine statistical significance between vehicle control and treated groups. Significance is set at P<0.05.
Test substances and vehicles were each administered topically (TOP) at 30 minutes before and 15 minutes after challenge with the second application of oxazolone.
The test system used was a 7-day oxazolone-induced ear swelling assay. […] Ear swelling was measured with a Dyer model micrometer gauge at 24 hours after oxazolone challenge as an index of inflammation. Ear edema was calculated by subtracting the thickness of the left ear (normal control) from the right ear (treated ear) (Table 9). […] Percent inhibition was calculated according to the formula: (Ic−It)/Ic×100, where Ic and It refer to increase of ear thickness (mm) in control and treated mice, respectively. […]
BALB/c mice are sensitized with oxazolone exposure to the abdomen and are subsequently challenged (7 days post-sensitization) with oxazolone application to the right ear. […] The effect of anti-inflammatory test articles is then assessed by measuring the amount of ear swelling, which is reported as a percentage in comparison to the study vehicle. […]

Th17/IL-17 pathway = conditions: skin biopsies stimulated with cytokine cocktail 48 hrs; cited from earlier work

SMILES | Ear Swelling % Inhibition (vs. Vehicle A) ([1]; Example 2 study, TOP x 2 (30 min before, 15 min after oxazolone challenge), 24 hours, vs acetone/ethanol 1/1) | % inhibition of oxazolone-induced ear swelling vs ethanol/acetone ([1]; Example 4 study, TOP x 2, 24 hours) | Net Swelling on Right Ear (Mean ± SEM, ×0.01 mm) ([1]; Example 4 study, TOP x 2, 24 hours after oxazolone challenge) | IL-17 secretion (Th17/IL-17 pathway)
C[C@@H]1C[C@H]2[C@@H]3CCC4=CC(=O)C=C[C@]4(C)[C@@]3(F)[C@@H](O)C[C@]2(C)[C@@]1(O)C(=O)CO [Dexamethasone] | 85* % | 86% | 3.2 ± 0.4 ×0.01 mm | –
C=C1/C(=C\C=C2/CCC[C@]3(C)[C@@H]([C@H](C)/C=C/[C@@H](O)C4CC4)CC[C@@H]23)C[C@@H](O)C[C@@H]1O [calcipotriol] | – | – | – | partial inhibition of IL-17 secretion
